In paper PMC10382584, “Macrocyclization of linear molecules by deep learning to facilitate macrocyclic drug candidates discovery” (Nature Communications, 2023):

Tests used:
Assay in all cases: biochemical
Parameters in all cases: DiscoveRx KINOMEscan competition binding, percent of DMSO control signal at 100 nM
Settings in all cases: read-out: Fig. 4a / Percent Control / Compound 1; percent of DMSO control, competition binding
[1] = molecular target: T1, ABL1(Q252H)-phosphorylated (Homo sapiens, UniProt P00519, Q252H)
T1 construct: phosphorylated

ACVR1 = ACVR1 (Homo sapiens, UniProt Q04771)
ACVR2A = ACVR2A (Homo sapiens, UniProt P27037)
BIKE = molecular target: T2, BIKE (Homo sapiens, UniProt Q9NSY1)
T2 construct: gene BMP2K

BUB1 = BUB1 (Homo sapiens, UniProt O43683)
CAMKK2 = CAMKK2 (Homo sapiens, UniProt Q96RR4)
CDKL2 = CDKL2 (Homo sapiens, UniProt Q92772)
DYRK1A = DYRK1A (Homo sapiens, UniProt Q13627)
ERBB3 = ERBB3 (Homo sapiens, UniProt P21860)
FGFR4 = FGFR4 (Homo sapiens, UniProt P22455)
FLT3(D835Y) = FLT3(D835Y) (Homo sapiens, UniProt P36888, D835Y)
FLT3(R834Q) = FLT3(R834Q) (Homo sapiens, UniProt P36888, R834Q)
GRK2 = GRK2 (Homo sapiens, UniProt P25098)
MERTK = MERTK (Homo sapiens, UniProt Q12866)
MRCKA = molecular target: T3, MRCKA (Homo sapiens, UniProt Q5VT25)
T3 construct: gene CDC42BPA

MST1 = molecular target: T4, MST1 (Homo sapiens, UniProt Q13043)
T4 construct: gene STK4

MYLK = MYLK (Homo sapiens, UniProt Q15746)
PIK3CA(H1047Y) = PIK3CA(H1047Y) (Homo sapiens, UniProt P42336, H1047Y)
PYK2 = molecular target: T5, PYK2 (Homo sapiens, UniProt Q14289)
T5 construct: gene PTK2B

RET(V804M) = RET(V804M) (Homo sapiens, UniProt P07949, V804M)
[2] = molecular target: T6, RPS6KA4(Kin.Dom.2-C-terminal) (Homo sapiens, UniProt O75676)
T6 construct: Kin.Dom.2-C-terminal

SGK3 = SGK3 (Homo sapiens, UniProt Q96BR1)
TLK2 = TLK2 (Homo sapiens, UniProt Q86UE8)
WEE1 = WEE1 (Homo sapiens, UniProt P30291)
WEE2 = WEE2 (Homo sapiens, UniProt P0C1S8)
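Also: KINOMEscan kinase panel binding assay, signal normalized between DMSO as 100% and a positive control compound as 0%.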

T3 sequence (Q5VT25 whole entry): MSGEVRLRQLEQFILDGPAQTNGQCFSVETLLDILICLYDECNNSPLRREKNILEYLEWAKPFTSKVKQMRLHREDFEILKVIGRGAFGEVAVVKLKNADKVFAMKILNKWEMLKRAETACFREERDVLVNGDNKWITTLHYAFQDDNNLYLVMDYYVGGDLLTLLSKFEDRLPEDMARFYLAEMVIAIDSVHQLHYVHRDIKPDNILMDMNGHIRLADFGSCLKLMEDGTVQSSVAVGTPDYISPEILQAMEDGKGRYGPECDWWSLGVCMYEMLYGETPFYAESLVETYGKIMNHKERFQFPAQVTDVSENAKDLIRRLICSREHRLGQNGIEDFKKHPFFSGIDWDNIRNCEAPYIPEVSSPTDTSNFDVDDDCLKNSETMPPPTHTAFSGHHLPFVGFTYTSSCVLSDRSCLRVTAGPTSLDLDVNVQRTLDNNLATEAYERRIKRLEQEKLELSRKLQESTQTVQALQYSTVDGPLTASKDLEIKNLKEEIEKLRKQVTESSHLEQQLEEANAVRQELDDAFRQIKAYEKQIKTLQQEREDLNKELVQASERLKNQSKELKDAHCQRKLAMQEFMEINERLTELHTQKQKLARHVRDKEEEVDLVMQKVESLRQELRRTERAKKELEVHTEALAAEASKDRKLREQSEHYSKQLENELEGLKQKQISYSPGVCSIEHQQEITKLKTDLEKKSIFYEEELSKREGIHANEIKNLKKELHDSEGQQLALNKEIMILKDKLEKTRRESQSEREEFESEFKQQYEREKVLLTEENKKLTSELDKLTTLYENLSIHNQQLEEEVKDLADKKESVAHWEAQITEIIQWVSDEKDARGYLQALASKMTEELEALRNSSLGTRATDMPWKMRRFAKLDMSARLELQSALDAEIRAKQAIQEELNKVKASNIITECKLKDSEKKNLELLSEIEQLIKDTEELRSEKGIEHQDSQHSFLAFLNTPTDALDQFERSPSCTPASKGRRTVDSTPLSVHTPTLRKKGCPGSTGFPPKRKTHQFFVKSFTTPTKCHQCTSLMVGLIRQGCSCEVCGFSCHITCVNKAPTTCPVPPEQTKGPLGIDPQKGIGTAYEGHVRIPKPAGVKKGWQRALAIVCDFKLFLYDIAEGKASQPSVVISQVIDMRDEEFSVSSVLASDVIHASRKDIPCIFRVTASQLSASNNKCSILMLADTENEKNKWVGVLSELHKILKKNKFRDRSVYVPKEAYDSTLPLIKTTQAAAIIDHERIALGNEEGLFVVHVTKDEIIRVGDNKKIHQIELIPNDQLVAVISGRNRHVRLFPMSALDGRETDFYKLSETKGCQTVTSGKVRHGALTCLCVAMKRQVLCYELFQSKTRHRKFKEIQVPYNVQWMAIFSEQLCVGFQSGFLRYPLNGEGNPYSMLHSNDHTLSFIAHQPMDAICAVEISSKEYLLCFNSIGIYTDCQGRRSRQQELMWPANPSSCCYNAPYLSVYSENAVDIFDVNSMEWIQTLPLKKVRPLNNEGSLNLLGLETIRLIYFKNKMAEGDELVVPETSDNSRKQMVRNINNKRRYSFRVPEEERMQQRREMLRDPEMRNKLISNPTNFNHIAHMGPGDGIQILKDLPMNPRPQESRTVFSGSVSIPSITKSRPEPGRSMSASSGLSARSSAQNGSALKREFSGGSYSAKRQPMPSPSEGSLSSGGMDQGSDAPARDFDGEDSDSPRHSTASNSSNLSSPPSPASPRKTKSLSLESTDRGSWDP
ERBB3, sequence (P21860 whole entry): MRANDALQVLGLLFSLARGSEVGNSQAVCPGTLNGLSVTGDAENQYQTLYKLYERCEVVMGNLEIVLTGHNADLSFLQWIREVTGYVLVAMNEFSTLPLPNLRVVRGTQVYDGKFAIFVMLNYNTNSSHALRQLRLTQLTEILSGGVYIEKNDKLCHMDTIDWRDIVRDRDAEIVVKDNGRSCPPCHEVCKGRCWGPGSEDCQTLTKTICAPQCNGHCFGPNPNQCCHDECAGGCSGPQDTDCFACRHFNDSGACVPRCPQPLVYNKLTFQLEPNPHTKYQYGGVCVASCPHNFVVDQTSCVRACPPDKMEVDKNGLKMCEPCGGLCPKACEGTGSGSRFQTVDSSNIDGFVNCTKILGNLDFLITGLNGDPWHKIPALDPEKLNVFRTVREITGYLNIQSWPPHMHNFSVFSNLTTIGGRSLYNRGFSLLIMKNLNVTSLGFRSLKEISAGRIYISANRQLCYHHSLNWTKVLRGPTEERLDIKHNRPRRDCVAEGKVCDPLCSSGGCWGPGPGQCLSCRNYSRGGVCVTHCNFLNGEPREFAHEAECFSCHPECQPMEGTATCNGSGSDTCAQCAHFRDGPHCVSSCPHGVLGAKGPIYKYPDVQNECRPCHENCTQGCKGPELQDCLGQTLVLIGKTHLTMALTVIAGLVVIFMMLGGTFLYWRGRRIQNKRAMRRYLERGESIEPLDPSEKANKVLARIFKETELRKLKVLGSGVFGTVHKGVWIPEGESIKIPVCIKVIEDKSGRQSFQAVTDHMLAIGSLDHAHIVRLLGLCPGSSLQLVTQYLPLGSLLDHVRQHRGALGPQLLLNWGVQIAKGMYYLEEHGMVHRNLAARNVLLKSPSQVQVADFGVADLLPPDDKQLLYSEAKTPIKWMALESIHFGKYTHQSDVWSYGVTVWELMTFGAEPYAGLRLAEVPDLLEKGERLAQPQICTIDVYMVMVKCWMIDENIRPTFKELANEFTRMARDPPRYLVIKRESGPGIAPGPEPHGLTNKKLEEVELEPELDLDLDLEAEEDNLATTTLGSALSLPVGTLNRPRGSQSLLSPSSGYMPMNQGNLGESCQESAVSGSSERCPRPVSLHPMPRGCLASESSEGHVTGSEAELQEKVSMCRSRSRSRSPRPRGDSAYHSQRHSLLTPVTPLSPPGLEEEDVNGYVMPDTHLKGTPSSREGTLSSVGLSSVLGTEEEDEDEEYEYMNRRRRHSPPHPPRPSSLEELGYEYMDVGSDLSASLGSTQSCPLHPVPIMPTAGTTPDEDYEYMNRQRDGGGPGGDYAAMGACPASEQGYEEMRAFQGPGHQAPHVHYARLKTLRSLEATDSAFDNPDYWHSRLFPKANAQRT
ACVR1, sequence (Q04771 whole entry): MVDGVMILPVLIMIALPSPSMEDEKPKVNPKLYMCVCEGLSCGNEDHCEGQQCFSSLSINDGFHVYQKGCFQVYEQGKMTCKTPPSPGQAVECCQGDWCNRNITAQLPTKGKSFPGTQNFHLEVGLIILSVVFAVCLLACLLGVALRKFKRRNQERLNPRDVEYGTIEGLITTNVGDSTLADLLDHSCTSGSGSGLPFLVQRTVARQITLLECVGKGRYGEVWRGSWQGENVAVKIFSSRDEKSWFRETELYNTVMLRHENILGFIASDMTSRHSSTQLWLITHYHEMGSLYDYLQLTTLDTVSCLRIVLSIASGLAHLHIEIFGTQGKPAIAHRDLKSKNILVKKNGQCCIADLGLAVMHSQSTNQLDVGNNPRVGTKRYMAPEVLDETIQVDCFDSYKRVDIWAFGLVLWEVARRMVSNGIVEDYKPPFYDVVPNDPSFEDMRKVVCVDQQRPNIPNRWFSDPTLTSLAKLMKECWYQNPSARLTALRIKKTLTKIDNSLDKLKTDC
T5 sequence (Q14289 whole entry): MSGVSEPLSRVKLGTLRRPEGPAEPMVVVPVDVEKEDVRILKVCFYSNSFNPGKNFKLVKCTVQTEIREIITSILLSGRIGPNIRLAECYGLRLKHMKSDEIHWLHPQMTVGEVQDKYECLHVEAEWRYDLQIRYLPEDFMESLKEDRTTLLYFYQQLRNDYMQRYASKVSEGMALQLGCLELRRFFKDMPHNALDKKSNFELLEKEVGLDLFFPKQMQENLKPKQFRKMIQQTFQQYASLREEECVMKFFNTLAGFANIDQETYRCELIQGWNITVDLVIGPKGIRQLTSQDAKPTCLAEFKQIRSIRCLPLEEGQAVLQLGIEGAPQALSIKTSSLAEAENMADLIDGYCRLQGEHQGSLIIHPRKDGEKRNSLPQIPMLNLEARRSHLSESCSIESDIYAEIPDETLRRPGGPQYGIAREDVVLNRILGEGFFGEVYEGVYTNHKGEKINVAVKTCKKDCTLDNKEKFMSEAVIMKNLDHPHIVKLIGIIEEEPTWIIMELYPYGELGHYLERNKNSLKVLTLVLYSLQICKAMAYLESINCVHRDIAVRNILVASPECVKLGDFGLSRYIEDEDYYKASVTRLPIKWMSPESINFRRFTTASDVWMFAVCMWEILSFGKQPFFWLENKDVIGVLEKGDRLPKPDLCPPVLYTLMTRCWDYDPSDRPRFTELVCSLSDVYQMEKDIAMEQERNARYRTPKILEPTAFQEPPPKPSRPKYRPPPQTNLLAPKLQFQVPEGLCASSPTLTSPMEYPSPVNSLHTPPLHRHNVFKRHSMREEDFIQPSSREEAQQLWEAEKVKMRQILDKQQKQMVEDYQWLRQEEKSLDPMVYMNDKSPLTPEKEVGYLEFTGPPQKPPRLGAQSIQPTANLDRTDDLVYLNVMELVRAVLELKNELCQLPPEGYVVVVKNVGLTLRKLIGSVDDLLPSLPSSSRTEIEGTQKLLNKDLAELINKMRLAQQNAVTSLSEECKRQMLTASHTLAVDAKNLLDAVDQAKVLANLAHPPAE
ACVR2A, sequence (P27037 whole entry): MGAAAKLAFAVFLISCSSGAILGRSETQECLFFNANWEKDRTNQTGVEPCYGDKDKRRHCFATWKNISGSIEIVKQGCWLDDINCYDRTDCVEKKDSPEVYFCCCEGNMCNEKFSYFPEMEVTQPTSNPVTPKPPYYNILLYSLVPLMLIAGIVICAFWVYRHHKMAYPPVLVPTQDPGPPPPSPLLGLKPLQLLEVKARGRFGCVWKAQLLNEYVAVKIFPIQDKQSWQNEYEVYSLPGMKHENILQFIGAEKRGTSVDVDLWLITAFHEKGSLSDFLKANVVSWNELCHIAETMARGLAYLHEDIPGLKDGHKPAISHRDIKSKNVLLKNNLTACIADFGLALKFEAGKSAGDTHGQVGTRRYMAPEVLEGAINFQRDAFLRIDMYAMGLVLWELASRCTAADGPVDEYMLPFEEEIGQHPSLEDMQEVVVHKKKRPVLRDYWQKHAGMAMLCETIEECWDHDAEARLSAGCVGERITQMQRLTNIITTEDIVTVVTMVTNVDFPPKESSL

Work on `Cc1cnc2nc1Nc1cccc(c1)COCc1cc(ccc1OCCN1CCCC1)N2` [Compound 1] yielded a remaining binding at 0.1 µM [1] of 59%, a remaining binding at 0.1 µM (ACVR1) of 92% and a remaining binding at 0.1 µM (ACVR2A) of 99%. It also gave a remaining binding at 0.1 µM (BIKE) of 47%, a remaining binding at 0.1 µM (BUB1) of 82% and a remaining binding at 0.1 µM (CAMKK2) of 96%. It also gave a remaining binding at 0.1 µM (CDKL2) of 95%, a remaining binding at 0.1 µM (DYRK1A) of 88% and a remaining binding at 0.1 µM (ERBB3) of 100%. It also gave a remaining binding at 0.1 µM (FGFR4) of 97%, a remaining binding at 0.1 µM (FLT3(D835Y)) of 14% and a remaining binding at 0.1 µM (FLT3(R834Q)) of 23%. It also gave a remaining binding at 0.1 µM (GRK2) of 90%, a remaining binding at 0.1 µM (MERTK) of 81% and a remaining binding at 0.1 µM (MRCKA) of 99%. The remaining binding at 0.1 µM (MST1) was 100%, the remaining binding at 0.1 µM (MYLK) was 93% and the remaining binding at 0.1 µM (PIK3CA(H1047Y)) was 91%. The remaining binding at 0.1 µM (PYK2) was 82%, the remaining binding at 0.1 µM (RET(V804M)) was 80% and the remaining binding at 0.1 µM [2] was 75%. It also gave a remaining binding at 0.1 µM (SGK3) of 91%, a remaining binding at 0.1 µM (TLK2) of 100% and a remaining binding at 0.1 µM (WEE1) of 90%. For the same molecule, the remaining binding at 0.1 µM (WEE2) was 78%.
